One test concerns the target T1, RON tyrosine kinase (Homo sapiens, UniProt Q04912).
T1 construct: purchased Carna Bioscience
Nature of the test: Enzyme inhibitory activity against RON tyrosine kinase (TR-FRET). It is filed as biochemical. The note with it: RON (Carna Bioscience). How it is done: Experimental Example 1: Measurement of Enzyme Inhibitory Activity Against RON Tyrosine Kinase
To measure enzyme inhibitory activity of the example compounds against RON, IC50 values of the compounds were measured using fluorescence resonance energy transfer (FRET).
Specifically, first, RON (Carna Bioscience) was diluted in a kinase assay buffer (50 mM HEPES pH 7.5, 1 mM EGTA, 10 mM MgCl2, 2 mM DTT, and 0.01% Tween-20) to be at a concentration (0.4 nM) that is twice the final reaction concentration. The dilute was added to a 384-well-plate at 5 μl per well. Each of the example compounds was prepared at a concentration of 1 mM in 100% DMSO and diluted 8 times in a stepwise manner through 10-fold dilution. Each compound was diluted in a kinase assay buffer to be at a concentration that is 4 times the final reaction concentration. The dilute was added to a 384-well-plate at 2.5 μl per well, and incubation was performed at room temperature for 15 minutes.
Thereafter, an ATP solution (Sigma Aldrich) prepared at a concentration of 0.25 M was diluted in a kinase assay buffer to be at a concentration (60 μM) that is 4 times the final reaction concentration. Dilution of a tyrosine peptide substrate (Perkin-Elmer) was performed therein to be at a concentration (400 nM) that is 4 times the final reaction concentration. The dilute was added to a 384-well-plate at 2.5 µl per well. Reaction was allowed to proceed for 60 minutes by incubating the 384-well-plate at room temperature. Thereafter, EDTA (Sigma Aldrich) was diluted in a TR-FRET detection buffer (Perkin-Elmer) to be at a concentration (20 mM) that is twice the final reaction concentration. Dilution of a Europium-containing phosphotyrosine antibody (Perkin-Elmer) was performed in the diluted EDTA solution to be at a concentration (4 nM) that is twice the final reaction concentration, so that a stop solution for RON reaction was prepared.
The stop solution was added to the 384-well-plate at 10 μl per well to quench the reaction, and incubation was performed at room temperature for 60 minutes. Then, the 384-well-plate was read on a Victor X5 (Perkin-Elmer) plate reader. Here, the excitation wavelength was 340 nm, and the emission wavelengths were 620 nm and 665 nm. An IC50 value of the compound was derived using GraphPad Prism 5 program, in which the IC50 was derived by expressing emission energy at the wavelength of 665 nm as a function of the compound concentration.
In general terms: Time-resolved FRET reads energy transfer from a long-lived donor to a nearby acceptor.

Test [1] concerns cancer cell line KM12C, in which RON is activated. Nature of the test: Cell-killing efficacy in RON-activated cancer cell line (trypan blue). It is filed as cell-based. To be noted: Homo sapiens, 48 hours, trypan blue, n=2, read-out: Cell death (%) Cancer cell line KM12C. How it is done: Experimental Example 3: Measurement of Cell-Killing Efficacy of Example Compounds in RON-Activated Cancer Cell Line
The cancer cell line KM12C (80015, KCLB, MEM+10% FBS), in which RON is activated, was dispensed into each 60 mm^2 dish at 1×10^5 cells. After 24 hours, the dish was treated with each of the example compounds at a concentration of 1 μM or 5 μM while performing medium exchange, and then reaction was allowed to proceed for 48 hours. After 48 hours, centrifugation was performed for 4 minutes at 1,500 rpm to collect cells and cell fluid. Thereafter, living cells and dead cells were quantified (n=2) using a trypan blue solution (15250-061, Gibco), and statistical analysis was performed using Excel-T-test. Here, as a negative control, only a solvent (0.100 DMSO) was used; and as a positive control, N-(4-(2-amino-3-chloropyridin-4-yloxy)-3-fluorophenyl)-4-ethoxy-1-(4-fluorophenyl)-2-oxo-1,2-dihydropyridine-3-carboxamide, which is the compound of Example 1 in WO 2008/058229 A1, was used.

Test [2] shares this test system. The test can be described thus: Cell growth inhibitory ability in RON-activated cancer cell line (MTS). To be noted: Homo sapiens, 48 hours, absorbance 490 nm. Type of test: cell-based. As to the method: Experimental Example 2: Identification of Cell Growth Inhibitory Ability of Example Compounds in RON-Activated Cancer Cell Line
The cancer cell line KM12C (80015, KCLB, MEM+1K° FBS), in which RON is activated, was treated with each of the example compounds at a concentration of 10 μM, and then reaction was allowed to proceed for 48 hours. 24 hours after completion of the reaction, 20 μl of MTS solution (CellTiter 96 Aqueous One Solution Cell Proliferation Assay, product number: G3581, Promega) was added to each well, and then incubation was performed at a temperature of 37° C. in 50 CO2 incubator for 4 hours. Then, an IC50 value of the compound was derived by measuring its absorbance value at a wavelength of 490 nm using a Victor X5 plate reader. Here, as a positive control, N-(4-(2-amino-3-chloropyridin-4-yloxy)-3-fluorophenyl)-4-ethoxy-1-(4-fluorophenyl)-2-oxo-1,2-dihydropyridine-3-carboxamide, which is the compound of Example 1 in WO 2008/058229 A1, was used.

This is an account of results in US20220235064A1 (WELLMARKER BIO CO., LTD., priority 2019, published 2022).

For orientation: IC50 means the concentration at which inhibition is half-maximal. Higher therefore signals weaker potency.

T1 sequence (Q04912 25-1400): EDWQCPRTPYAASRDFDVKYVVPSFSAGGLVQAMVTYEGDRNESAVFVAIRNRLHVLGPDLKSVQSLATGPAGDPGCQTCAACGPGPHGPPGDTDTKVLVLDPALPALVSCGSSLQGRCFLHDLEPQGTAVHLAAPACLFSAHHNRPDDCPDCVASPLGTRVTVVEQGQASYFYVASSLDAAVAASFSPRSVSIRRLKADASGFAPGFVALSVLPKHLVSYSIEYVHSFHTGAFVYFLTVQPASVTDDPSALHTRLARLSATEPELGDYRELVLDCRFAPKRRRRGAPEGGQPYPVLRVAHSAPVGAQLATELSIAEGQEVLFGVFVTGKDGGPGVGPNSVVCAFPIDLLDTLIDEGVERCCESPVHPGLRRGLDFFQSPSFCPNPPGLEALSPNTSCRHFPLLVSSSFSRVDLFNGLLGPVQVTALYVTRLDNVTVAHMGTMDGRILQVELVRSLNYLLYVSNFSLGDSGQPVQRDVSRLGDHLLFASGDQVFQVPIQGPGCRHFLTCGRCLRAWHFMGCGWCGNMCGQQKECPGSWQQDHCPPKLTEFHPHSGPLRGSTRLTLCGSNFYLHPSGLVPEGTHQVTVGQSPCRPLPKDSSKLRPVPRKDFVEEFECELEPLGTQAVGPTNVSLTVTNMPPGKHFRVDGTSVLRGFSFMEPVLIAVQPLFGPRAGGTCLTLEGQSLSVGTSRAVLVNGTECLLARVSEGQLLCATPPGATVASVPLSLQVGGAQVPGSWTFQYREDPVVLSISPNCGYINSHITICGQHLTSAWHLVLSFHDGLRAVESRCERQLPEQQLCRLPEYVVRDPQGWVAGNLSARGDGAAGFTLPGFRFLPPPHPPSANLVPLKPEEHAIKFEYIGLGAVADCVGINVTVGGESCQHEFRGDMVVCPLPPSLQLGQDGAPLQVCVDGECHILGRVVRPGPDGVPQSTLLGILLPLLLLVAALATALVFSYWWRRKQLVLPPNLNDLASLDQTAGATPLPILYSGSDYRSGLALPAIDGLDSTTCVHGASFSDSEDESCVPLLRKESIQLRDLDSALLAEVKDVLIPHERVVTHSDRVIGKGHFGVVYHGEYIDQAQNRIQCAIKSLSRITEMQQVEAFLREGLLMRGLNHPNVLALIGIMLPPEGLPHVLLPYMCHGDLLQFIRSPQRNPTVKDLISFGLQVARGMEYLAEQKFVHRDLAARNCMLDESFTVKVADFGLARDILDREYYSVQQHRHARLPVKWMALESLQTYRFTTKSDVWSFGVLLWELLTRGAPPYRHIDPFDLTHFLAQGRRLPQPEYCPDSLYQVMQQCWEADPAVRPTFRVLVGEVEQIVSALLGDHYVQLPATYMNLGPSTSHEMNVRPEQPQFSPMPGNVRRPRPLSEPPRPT

As to `Cn1cc(-c2cc3nccc(Oc4ccc(NC(=O)c5c6c(cn(-c7ccc(F)cc7)c5=O)CCO6)cc4F)c3s2)cn1` [Example 10, N-(3-Fluoro-4-((2-(1-methyl-1H-pyrazol-4-yl)thieno[3,2-b]pyridin-7-yl)oxy)phenyl)-5-(4-fluorophenyl)-6-oxo-2,3,5,6-tetrahydrofuro[3,2-c]pyridine-7-carboxamide], the half-maximal inhibitory concentration (IC50) against RON tyrosine kinase amounted to 0.92 nM. Also, in test [1], the cytotoxicity at 1 µM was determined as 22% and the cytotoxicity at 5 µM turned out to be 21.9%.

In test [2], `COC1CN(Cc2ccc(-c3cc4nccc(Oc5ccc(NC(=O)c6c7c(cn(-c8ccc(F)cc8)c6=O)CCO7)cc5F)c4s3)nc2)C1` [Example 14, N-(3-Fluoro-4-((2-(5-((3-methoxyazetidin-1-yl)methyl)pyridin-2-yl)thieno[3,2-b]pyridin-7-yl)oxy)phenyl)-5-(4-fluorophenyl)-6-oxo-2,3,5,6-tetrahydrofuro[3,2-c]pyridine-7-carboxamide] gave an IC50 of 2 nM. Also, in test [1], the cytotoxicity at 1 µM is 13.6% and the cytotoxicity at 5 µM turned out to be 21.5%.

Turning to `COC1(C)CN(Cc2ccc(-c3cc4nccc(Oc5ccc(NC(=O)c6c7c(cn(-c8ccc(F)cc8)c6=O)CCO7)cc5F)c4s3)nc2)C1` [Example 16, N-(3-Fluoro-4-((2-(5-((3-methoxy-3-methylazetidin-1-yl)methyl)pyridin-2-yl)thieno[3,2-b]pyridin-7-yl)oxy)phenyl)-5-(4-fluorophenyl)-6-oxo-2,3,5,6-tetrahydrofuro[3,2-c]pyridine-7-carboxamide], the half-maximal inhibitory concentration (IC50) in test [2] amounted to 1 nM. Moreover, in test [1], the cytotoxicity at 1 µM came out at 20.4% and the cytotoxicity at 5 µM is 24.2%.

With `O=C(Nc1ccc(Oc2ccnc3cc(-c4ccc(CN5CC(F)C5)cn4)sc23)c(F)c1)c1c2c(cn(-c3ccc(F)cc3)c1=O)CCO2` [Example 17, N-(3-Fluoro-4-((2-(5-((3-fluoroazetidin-1-yl)methyl)pyridin-2-yl)thieno[3,2-b]pyridin-7-yl)oxy)phenyl)-5-(4-fluorophenyl)-6-oxo-2,3,5,6-tetrahydrofuro[3,2-c]pyridine-7-carboxamide], in test [2], the 50% inhibitory concentration (IC50) is 1 nM. Besides, in test [1], the cytotoxicity at 1 µM turned out to be 14% and the cytotoxicity at 5 µM came out at 27.7%.

For `O=C(Nc1ccc(Oc2ccnc3cc(-c4ccc(CN5CC(F)(F)C5)cn4)sc23)c(F)c1)c1c2c(cn(-c3ccc(F)cc3)c1=O)CCO2` [Example 18, N-(4-((2-(5-((3,3-Difluoroazetidin-1-yl)methyl)pyridin-2-yl)thieno[3,2-b]pyridine-7-yl)oxy)-3-fluorophenyl)-5-(4-fluorophenyl)-6-oxo-2,3,5,6-tetrahydrofuro[3,2-c]pyridine-7-carboxamide], in test [2], the half-maximal inhibitory concentration (IC50) was 3 nM. Also, in test [1], the cytotoxicity at 1 µM stood at 10.9% and the cytotoxicity at 5 µM was 11.3%.

As for `N#CC1CN(Cc2ccc(-c3cc4nccc(Oc5ccc(NC(=O)c6c7c(cn(-c8ccc(F)cc8)c6=O)CCO7)cc5F)c4s3)nc2)C1` [Example 19, N-(4-((2-(5-((3-Cyanoazetidin-1-yl)methyl)pyridin-2-yl)thieno[3,2-b]pyridin-7-yl)oxy)-3-fluorophenyl)-5-(4-fluorophenyl)-6-oxo-2,3,5,6-tetrahydrofuro[3,2-c]pyridine-7-carboxamide], the IC50 in test [2] amounted to 1 nM. Further, in test [1], the cytotoxicity at 1 µM is 15.7% and the cytotoxicity at 5 µM amounted to 21.9%.

Compound `CC1(O)CCN(Cc2ccc(-c3cc4nccc(Oc5ccc(NC(=O)c6c7c(cn(-c8ccc(F)cc8)c6=O)CCO7)cc5F)c4s3)nc2)C1` (stereo not drawn) [Example 24, N-(3-Fluoro-4-((2-(5-((3-hydroxy-3-methylpyrrolidin-1-yl)methyl)pyridin-2-yl)thieno[3,2-b]pyridin-7-yl)oxy)phenyl)-5-(4-fluorophenyl)-6-oxo-2,3,5,6-tetrahydrofuro[3,2-c]pyridine-7-carboxamide] registered a half-maximal inhibitory concentration (IC50) in test [2] of 1 nM. For the same compound, in test [1], the cytotoxicity at 1 µM stood at 18.6% and the cytotoxicity at 5 µM is 16.9%.

As for `COc1ccc2nccc(Oc3ccc(NC(=O)c4c5c(cn(-c6ccc(F)cc6)c4=O)CCO5)cc3F)c2c1` [Example 44, N-(3-Fluoro-4-((6-methoxyquinolin-4-yl)oxy)phenyl)-5-(4-fluorophenyl)-6-oxo-2,3,5,6-tetrahydrofuro[3,2-c]pyridine-7-carboxamide], inhibition against RON tyrosine kinase was half-maximal at 1.87 nM (IC50). Moreover, in test [1], the cytotoxicity at 1 µM came to 16% and the cytotoxicity at 5 µM came to 21.4%.

`COc1ccc2c(Oc3ccc(NC(=O)c4c5c(cn(-c6ccc(F)cc6)c4=O)CCO5)cc3F)ccnc2c1` [Example 45, N-(3-Fluoro-4-((7-methoxyquinolin-4-yl)oxy)phenyl)-5-(4-fluorophenyl)-6-oxo-2,3,5,6-tetrahydrofuro[3,2-c]pyridine-7-carboxamide] displayed an IC50 at RON tyrosine kinase of 1.5 nM. In addition, in test [1], the cytotoxicity at 1 µM is 16.3% and the cytotoxicity at 5 µM was 18.9%.

`COc1cc2nccc(Oc3ccc(NC(=O)c4c5c(cn(-c6ccc(F)cc6)c4=O)CCO5)cc3F)c2cc1C(=O)N(C)C` [Example 49, N-(4-((6-(Dimethylcarbamoyl)-7-methoxyquinolin-4-yl)oxy)-3-fluorophenyl)-5-(4-fluorophenyl)-6-oxo-2,3,5,6-tetrahydrofuro[3,2-c]pyridine-7-carboxamide] displayed an IC50 on RON tyrosine kinase of 2.98 nM. Also, in test [1], the cytotoxicity at 1 µM worked out at 9.98% and the cytotoxicity at 5 µM was 11.2%.

The compound `O=C(Nc1ccc(Oc2ccnc3cc(OCCCN4CCOCC4)ccc23)c(F)c1)c1c2c(cn(-c3ccc(F)cc3)c1=O)CCC2` [Example 159, N-(3-Fluoro-4-((7-(3-morpholinopropoxy)quinolin-4-yl)oxy)phenyl)-2-(4-fluorophenyl)-3-oxo-3,5,6,7-tetrahydro-2H-cyclopenta[c]pyridine-4-carboxamide] returned a half-maximal inhibitory concentration (IC50) against RON tyrosine kinase of 11.9 nM.

As for `CC1CCN(CCCOc2ccc3c(Oc4ccc(NC(=O)c5c6c(cn(-c7ccc(F)cc7)c5=O)CCO6)cc4F)ccnc3c2)CC1` [Example 162], at RON tyrosine kinase, half-maximal inhibition (IC50) was put at 1.18 nM. In test [1], the cytotoxicity at 1 µM is 16.4% and the cytotoxicity at 5 µM worked out at 22.6%.

The compound `O=C(Nc1ccc(Oc2ccnc3cc(OCCN4CCOCC4)c(C(F)(F)F)cc23)c(F)c1)c1c2c(cn(-c3ccc(F)cc3)c1=O)CCO2` [Example 169, N-(3-Fluoro-4-((7-(2-morpholinoethoxy)-6-(trifluoromethyl)quinolin-4-yl)oxy)phenyl)-5-(4-fluorophenyl)-6-oxo-2,3,5,6-tetrahydrofuro[3,2-c]pyridine-7-carboxamide] came in with an IC50 at RON tyrosine kinase of over 100 nM.

For `O=C(Nc1ccc(Oc2ccnc3cc(OCCCN4CCOCC4)c(C(F)(F)F)cc23)c(F)c1)c1c2c(cn(-c3ccc(F)cc3)c1=O)CCO2` [Example 170, N-(3-Fluoro-4-((7-(3-morpholinopropoxy)-6-(trifluoromethyl)quinolin-4-yl)oxy)phenyl)-5-(4-fluorophenyl)-6-oxo-2,3,5,6-tetrahydrofuro[3,2-c]pyridine-7-carboxamide], at RON tyrosine kinase, the half-inhibitory concentration (IC50) was over 100 nM.
